Data published in US9512111B2, “N-sulfonylated tetrahydroquinolines and related bicyclic compounds for inhibition of RORγ activity and the treatment of disease” (Lycera Corporation, priority 2010, dated 2016).

Legend:
[1] = target: T1, RORγ-LBD (Homo sapiens, UniProt P51449); test: RORγ-Ligand Binding Domain TR-FRET Assay; type: biochemical; conditions: benzoxazines, Table 9
T1 construct: HIS-tagged RORγ-LBD was recombinantly expressed in SF9 cells; made in house; host or cells: SF9 cells (baculovirus); unpurified lysate
T1 sequence (P51449 269-508 limits assumed): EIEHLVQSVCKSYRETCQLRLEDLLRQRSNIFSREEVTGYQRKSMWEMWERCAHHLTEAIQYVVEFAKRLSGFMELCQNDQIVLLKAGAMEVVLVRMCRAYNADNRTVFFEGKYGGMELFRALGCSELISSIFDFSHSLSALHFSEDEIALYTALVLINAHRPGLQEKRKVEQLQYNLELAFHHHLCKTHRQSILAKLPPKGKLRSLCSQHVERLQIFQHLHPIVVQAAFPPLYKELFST
Outline: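 IC50 derived from the 665 nm/615 nm emission ratio after 4 h to overnight incubation. Mixture: Sf9 lysate with His-tagged LBD (~10 nM final, not purified), SRC1-2 LXXLL biotin peptide at 450 nM, 2 nM europium anti-His antibody, 60 nM APC-streptavidin; buffer 25 mM HEPES pH 7.0, 100 mM NaCl, 0.01% Tween, 0.1% BSA.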

[2] = target: T2, RORγt (Homo sapiens, UniProt P51449); test: RORγ Reporter Assay (GAL4-UAS luciferase reporter in HEK293 cells); type: cell-based; conditions: benzoxazines, Table 9; HEK cells
T2 construct: The resulting GAL4-RORγt-LBD fusion construct was placed under the control of a constitutive cytomegalovirus (CMV) promoter; expressed in transfected cells; host or cells: HEK293
T2 sequence (P51449 269-508 limits assumed): T1 sequence (P51449 269-508 limits assumed)
Protocol: Inhibition of RORγt in cells was determined using a GAL4-UAS reporter system in HEK293 cells employing a luciferase readout. The RORγt DNA binding domain (DBD) was replaced with the heterologous yeast GAL4 DBD using standard recombinant DNA methods. The resulting GAL4-RORγt-LBD fusion construct was placed under the control of a constitutive cytomegalovirus (CMV) promoter by cloning it into the CMV-driven mammalian expression vector pcDNA3.1+− (Promega Corporation, Madison, Wis.).
A transcriptional reporter expression construct was used to monitor GAL4-RORγ activity, which contained five copies of the GAL4 binding site enhancer (UAS) controlling expression of a firefly luciferase reporter. This construct, pGL4.31, is commercially available from Promega Corporation, Madison Wis. Both expression constructs were transfected in bulk into HEK-293 cells using standard lipid-based transfection techniques, which allowed the GAL4 RORγ-LBD fusion protein to drive expression of the luciferase reporter. Control transfections were performed with an empty pCDN3.1+ vector.
The next day, cells were plated into 384 well plates, test compound was added, and the plates were incubated overnight. […] Promega firefly assays kits were used to stabilize the luciferase signal, and the intensity of the luciferase signal was measured using an EnVision Multilabel Plate Reader (Perkin Elmer, Waltham, Mass.).
HEK 293 cells are transfected with GAL4-NR construct (CMV:NR-LBD in pcDNA3.1neo) and the pGL4.31 GAL4-luciferase reporter construct (Promega). For a background control, use empty pcDNA3.1neo and pGL4.31. Transfection protocol is for a single T75 flask performed with Minis Trans-It 293 reagent. A 60 μL aliquot of Trans-IT reagent at room temperature is added drop wise to 1.5 mL of Optimem (Invitrogen). The resulting solution is mixed by inversion and incubated for 5-20 minutes at room temperature. This reagent mixture is added to 10 μg of DNA (5 μg of each expression vector used at a concentration of 1 mg/mL). The solution is mixed by inversion and incubated at room temperature for 20 minutes.
While the Trans-IT reagent and DNA are incubating, harvest HEK-293 cells. Remove media from flasks via aspiration and add enough TrypLE Express (stable Trypsin-like reagent, Invitrogen) to cover the bottom of the flask. The mixture is incubated at room temperature until the cells are visibly loose in the flask (approximately 2-5 minutes). Add an equal volume of complete growth media, and then pipette to achieve a single cell suspension. Spin down 1×10^7 cells and re-suspend the cells in 10 mL of complete growth media (DMEM high glucose/10% dialyzed FBS/pen/strep; Invitrogen). The cells and transfection mixture are added to one T75 flask. The contents of the T75 flax are mixed and incubated overnight at 37° C. and 5% CO2.
After 16-24 hours, cells are harvested and plated for test compound screening. Cells may be harvested as described above. Next, cells are counted and an appropriate number of cells are spun down. Then, cells are aspirated and re-suspended in complete growth media at a concentration of 0.5×10^6 cells/mL to provide a cell suspension. Plate 20 μL of the cell suspension into a white, tissue-culture treated 384 well plate. (10,000 cells/well).
A 10 mM stock solution of test compound in dimethylsulfoxide (DMSO) was diluted to 500× the final test concentration in DMSO, then diluted to 5× the final test concentration with complete growth medium to provide the Test Compound Solution. The concentration of DMSO in the Test Compound Solution was […]. A 5 μL aliquot of Test Compound Solution was added to each test well in the 384 well plate previously plated with the cell suspension. Next, plates are spun briefly and incubated overnight at 37° C. and 5% CO2.
After 16-24 hours, the luciferase assay is performed. Plates and luciferase reagent (e.g. One-Glo® or Dual Glo®; Promega, Madison, Wis.) are brought to room temperature.

| Structure (SMILES) | IC50 [1] | IC50 [2] |
| --- | --- | --- |
| N#Cc1cccc(S(=O)(=O)N2C[C@H](CO)Oc3ccc(NC(=O)c4c(F)cccc4C(F)(F)F)cc32)c1 [VI-62] | < 15 µM | < 15 µM |
| Cc1cccc(F)c1C(=O)Nc1ccc2c(c1)N(S(=O)(=O)c1ccc(F)cc1)C[C@H](CO)O2 [VI-44] | < 15 µM | < 15 µM |
| O=C(Nc1ccc2c(c1)N(S(=O)(=O)c1ccc(F)c(F)c1)C[C@@H](CO)O2)c1c(F)cccc1F [VI-76] | < 15 µM | < 15 µM |
| COCC1CN(S(=O)(=O)c2ccc(F)cc2)c2cc(NC(=O)c3c(F)cccc3F)ccc2O1 (stereo not shown) [VI-113] | < 15 µM | < 15 µM |
| O=C(Nc1ccc2c(c1)N(S(=O)(=O)c1ccc(F)cc1)C[C@@H](CO)O2)c1c(Cl)cccc1Cl [VI-106] | < 15 µM | < 15 µM |
| Cc1nn(C(F)F)cc1S(=O)(=O)N1C[C@H](CO)Oc2ccc(NC(=O)c3c(F)cccc3Cl)cc21 [VI-30] | < 15 µM | < 15 µM |
| O=C(Nc1ccc2c(c1)N(S(=O)(=O)c1ccc(F)cc1)C[C@@H](CO)O2)c1c(F)cccc1F [VI-110] | < 15 µM | < 15 µM |
| O=C(Nc1ccc2c(c1)N(S(=O)(=O)c1ccc(Cl)cc1)C[C@H](CO)O2)c1c(F)cccc1F [VI-87] | < 15 µM | < 15 µM |
| O=C(Nc1ccc2c(c1)N(S(=O)(=O)c1ccc(Cl)cc1)C[C@H](CO)O2)c1c(Cl)cccc1Cl [VI-85] | < 15 µM | < 15 µM |
| C[C@H]1CN(S(=O)(=O)c2ccc(F)cc2)c2cc(NC(=O)c3c(F)cccc3Cl)ccc2O1 [VI-1] | < 15 µM | < 15 µM |
| O=C(Nc1ccc2c(c1)N(S(=O)(=O)c1ccccc1)C[C@H](CO)O2)c1c(F)cccc1Cl [VI-24] | < 15 µM | < 15 µM |
| CCOCC1CN(S(=O)(=O)c2ccc(F)c(F)c2)c2cc(NC(=O)c3c(Cl)cccc3C(F)(F)F)ccc2O1 (stereo not shown) [VI-88] | < 15 µM | < 15 µM |
| O=C(Nc1ccc2c(c1)N(S(=O)(=O)c1ccc(F)cc1)CCO2)c1c(Cl)cccc1Cl [VI-129] | < 15 µM | < 15 µM |
| CCOCC1CN(S(=O)(=O)c2ccc(F)c(F)c2)c2cc(NC(=O)c3c(F)cccc3F)ccc2O1 (stereo not shown) [VI-99] | < 15 µM | < 15 µM |
| COc1ccc(S(=O)(=O)N2C[C@H](CO)Oc3ccc(NC(=O)c4c(Cl)cccc4Cl)cc32)cn1 [VI-26] | < 15 µM | < 15 µM |
| N#Cc1cccc(S(=O)(=O)N2C[C@H](CO)Oc3ccc(NC(=O)c4c(Cl)cccc4Cl)cc32)c1 [VI-63] | < 15 µM | < 15 µM |
| CCOCC1CN(S(=O)(=O)c2ccc(F)cc2)c2cc(NC(=O)c3c(Cl)cccc3C(F)(F)F)ccc2O1 (stereo not shown) [Compound 15, 2-Chloro-N-[2-ethoxymethyl-4-(4-fluoro-benzenesulfonyl)-3,4-dihydro-2H-benzo[1,4]oxazin-6-yl]-6-trifluoromethyl-benzamide] | < 15 µM | < 15 µM |
| CC(C)OCC1CN(S(=O)(=O)c2ccc(F)cc2)c2cc(NC(=O)c3c(F)cccc3F)ccc2O1 (stereo not shown) [VI-115] | < 15 µM | < 15 µM |
| O=C(Nc1ccc2c(c1)N(S(=O)(=O)c1ccc(F)cc1)C[C@H](CO)O2)c1c(Cl)cccc1Cl [VI-83] | < 15 µM | < 15 µM |

| Structure (SMILES) | IC50 [1] | IC50 [2] |
| --- | --- | --- |
| Cc1nn(C(F)F)cc1S(=O)(=O)N1C[C@H](C)Oc2ccc(NC(=O)c3c(Cl)cccc3Cl)cc21 [VI-9] | < 15 µM | < 15 µM |
| O=C(Nc1ccc2c(c1)N(S(=O)(=O)c1ccc(F)cc1)C[C@H](CO)O2)c1c(F)cccc1Cl [VI-120] | < 15 µM | < 15 µM |
| N#Cc1cccc(S(=O)(=O)N2C[C@H](CO)Oc3ccc(NC(=O)c4c(F)cccc4Cl)cc32)c1 [Compound 20, (R)-2-Chloro-N-(4-((3-cyanophenyl)sulfonyl)-2-(hydroxymethyl)-3,4-dihydro-2H-benzo[b][1,4]oxazin-6-yl)-6-fluorobenzamide] | < 15 µM | < 15 µM |
| COCC1CN(S(=O)(=O)c2ccc(F)cc2)c2cc(NC(=O)c3c(F)cccc3Cl)c(F)cc2O1 (stereo not shown) [Compound 12, 2-Chloro-6-fluoro-N-[7-fluoro-4-(4-fluorobenzenesulfonyl)-2-methoxymethyl-3,4-dihydro-2H-benzo[1,4]oxazin-6-yl]benzamide] | < 15 µM | < 15 µM |
| Cc1nn(C(F)F)cc1S(=O)(=O)N1C[C@H](C)Oc2ccc(NC(=O)c3c(F)cccc3C(F)(F)F)cc21 [VI-10] | < 15 µM | < 15 µM |
| COc1ccc(S(=O)(=O)N2C[C@H](CO)Oc3ccc(NC(=O)c4c(F)cccc4C(F)(F)F)cc32)cn1 [VI-25] | < 15 µM | < 15 µM |
| CCOCC1CN(S(=O)(=O)c2ccc(F)cc2)c2cc(NC(=O)c3c(F)cccc3Cl)ccc2O1 (stereo not shown) [VI-118] | < 15 µM | < 15 µM |
| O=C(Nc1ccc2c(c1)N(S(=O)(=O)c1ccc(F)cc1)CC(CN(CC1CC1)CC1CC1)O2)c1c(F)cccc1Cl (stereo not shown) [VI-37] | < 15 µM | < 15 µM |
| O=C(Nc1cc2c(cc1F)O[C@@H](CO)CN2S(=O)(=O)c1ccc(F)cc1)c1c(F)cccc1Cl [VI-47] | < 15 µM | < 15 µM |
| O=C(Nc1cc2c(cc1F)O[C@@H](CO)CN2S(=O)(=O)c1ccc(F)cc1)c1c(Cl)cccc1Cl [VI-40] | < 15 µM | < 15 µM |
| O=C(Nc1ccc2c(c1)N(S(=O)(=O)c1ccc(F)c(F)c1)C[C@@H](CO)O2)c1c(F)cccc1C(F)(F)F [VI-72] | < 15 µM | < 15 µM |
| COCC1CN(S(=O)(=O)c2ccc(Cl)cc2)c2cc(NC(=O)c3c(Cl)cccc3Cl)ccc2O1 (stereo not shown) [VI-95] | < 15 µM | < 15 µM |
| COCC1CN(S(=O)(=O)c2ccc(F)c(F)c2)c2cc(NC(=O)Cc3ccc(F)cc3)ccc2O1 (stereo not shown) [VI-78] | < 15 µM | < 15 µM |
| O=C(Nc1ccc2c(c1)N(S(=O)(=O)c1ccc(F)cc1)CC(CC(F)(F)F)O2)c1c(F)cccc1C(F)(F)F (stereo not shown) [VI-14] | < 15 µM | < 15 µM |
| O=C(Nc1ccc2c(c1)N(S(=O)(=O)c1ccc(F)c(F)c1)C[C@H](CO)O2)c1c(F)cccc1Cl [VI-42] | < 15 µM | < 15 µM |
| O=C(Nc1ccc2c(c1)N(S(=O)(=O)c1ccc(F)cc1)C[C@H](CO)O2)c1c(F)cccc1C(F)(F)F [VI-82] | < 15 µM | < 15 µM |
| O=C(Nc1ccc2c(c1)N(S(=O)(=O)c1ccc(Cl)cc1)C[C@H](CO)O2)c1c(F)cccc1C(F)(F)F [VI-67] | < 15 µM | < 15 µM |
| COCC1CN(S(=O)(=O)c2ccc(F)cc2)c2cc(NC(=O)c3c(Cl)cccc3Cl)ccc2O1 (stereo not shown) [VI-105] | < 15 µM | < 15 µM |
| COCC1CN(S(=O)(=O)c2ccc(Cl)cc2)c2cc(NC(=O)c3c(F)cccc3F)ccc2O1 (stereo not shown) [VI-97] | < 15 µM | < 15 µM |
